Experimental data taken from US8314085B2, “Agent for overcoming resistance to anti-cancer agent” (Nippon Chemiphar Co., Ltd., priority 2006, dated 2012).
Counter-ions that a name gives are not always drawn. Like-named read-outs stand apart in the source and are kept apart here.

Assays:
[1] = system: BCRP-overexpressing cells (Flp-In-293/BCRP); experiment: Influence on anti-cancer agent (SN-38) resistance in BCRP-overexpressing cells, MTT assay; format: cell-based; conditions: Flp-In-293/ABCG2 cells; for degree of reversing resistance to SN-38: at the concentration of 5 μmol/L, 72 hours
Flp-In-293/ABCG2 cells = experiment: Toxicity to the cells (viability, MTT assay); conditions: at or up to the concentration of 10 μmol/L
BCRP [2] = target: T1, BCRP (Homo sapiens, UniProt Q9UNQ0); experiment: BCRP-mediated methotrexate transport in membrane vesicles of BCRP-expressing Sf9 cells; conditions: for inhibitory action on BCRP-mediated methotrexate transport: at concentration of 100 μmol/L
T1 sequence (Q9UNQ0 1-655): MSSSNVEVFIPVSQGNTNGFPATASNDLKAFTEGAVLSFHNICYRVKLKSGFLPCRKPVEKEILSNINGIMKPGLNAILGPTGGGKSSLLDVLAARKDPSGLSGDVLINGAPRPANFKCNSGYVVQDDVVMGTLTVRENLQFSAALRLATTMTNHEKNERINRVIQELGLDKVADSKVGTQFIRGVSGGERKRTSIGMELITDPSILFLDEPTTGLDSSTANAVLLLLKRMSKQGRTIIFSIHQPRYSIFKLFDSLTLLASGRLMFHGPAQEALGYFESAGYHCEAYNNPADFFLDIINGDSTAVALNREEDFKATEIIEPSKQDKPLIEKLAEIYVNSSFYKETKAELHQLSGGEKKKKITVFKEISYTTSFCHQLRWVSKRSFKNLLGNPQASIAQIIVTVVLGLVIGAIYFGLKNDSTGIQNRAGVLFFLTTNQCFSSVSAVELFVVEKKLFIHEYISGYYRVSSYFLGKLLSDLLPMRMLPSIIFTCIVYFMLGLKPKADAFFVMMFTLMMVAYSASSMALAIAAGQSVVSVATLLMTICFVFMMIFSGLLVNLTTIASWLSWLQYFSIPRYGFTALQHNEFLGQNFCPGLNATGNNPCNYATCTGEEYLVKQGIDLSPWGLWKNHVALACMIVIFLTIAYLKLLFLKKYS
Protocol: (§1) In the experiment, plasma membrane was prepared from BCRP-expressing Sf9 cells.
(§2) The activity of methotrexate transport was measured using 96 wells-plate according to the following method.
(§3) Preparation and Composition of Reaction Solution
(§4) 50 μL of solution containing sucrose (250 mmol/L) and Tris/Hepes (10 mmol/L, pH: 7.4)
(§5) 30 μL of solution containing ATP (3.33 mmol/L), creatine phosphate (33.3 mmol/L), and MgCl2 (33.3 mmol/L)
(§6) (or solution containing creatine phosphate (33.3 mmol/L) and MgCl2 (33.3 mmol/L))
5 μL of creatine kinase (2 mg/mL)
(§7) 2 μL of [^3H]methotrexate (10 mmol/L, final concentration: 200 μmol/L)
(§8) 10 μL of membrane sample of BCRP-expressing Sf9 cells (total protein: 50 μg)
(§9) The reaction solution was incubated at 37° C. for 20 minutes. 1 mL of ice-cooled solution containing sucrose (250 mmol/L), EDTA (2 mmol/L), and Tris/Hepes (10 mmol/L, pH: 7.4) was quickly added to the reaction solution to stop the reaction. Each 270 μL of the mixed solution was poured into each well of MultiScreen™ (Millipore), and sucked. The wells were washed four times with 200 μL of ice-cooled solution containing sucrose (250 mmol/L) and Tris/Hepes (10 mmol/L, pH: 7.4). The radioactivity trapped on a filter of each well was measured. The amount of methotrexate transported into the membrane vesicle was calculated from the radioactivity.

BCRP [3] = target: T1, BCRP
Protocol: as §1, §2, §3, §4, §5, §6
5 μL of creatine kinase (2 mg/mL)
as §7, §8, §9

IC50 (BCRP [2]) [nM] | Compound | effect of overcoming resistance to SN-38 (in words) [1] | toxicity to the cells / effect on viability (Flp-In-293/ABCG2 cells) | degree of reversing resistance to SN-38 [1] | other results
 | CC(C)(C)COc1ccc(-n2cc(C(=O)O)cn2)cc1C#N [Compound Y-700, 1-[3-cyano-4-(2,2-dimethylpropoxy)phenyl]-1H-pyrazole-4-carboxylic acid] | did not exhibit an effect of overcoming the resistance in the concentration not exhibiting toxicity to the cells |  |  | 
 | N#Cc1cc(-c2nc3c(O)ncnc3s2)ccc1Oc1ccccc1 [Compound 5, 2-(3-cyano-4-phenoxyphenyl)-4-hydroxythiazolo[5,4-d]pyrimidine] |  | did not exhibit toxicity to the cells | about 96% | 
 | O=c1[nH]c(=O)c2c[nH]nc2[nH]1 [oxypurinol] | did not exhibit an effect of overcoming resistance to SN-38 |  |  | inhibitory action on BCRP-mediated methotrexate transport (BCRP [2]): did not exhibit an inhibitory action
 | Oc1ncnc2[nH]ncc12 [allopurinol] | did not exhibit an effect of overcoming resistance to SN-38 | did not exhibit toxicity to the cells |  | inhibitory action on BCRP-mediated methotrexate transport (BCRP [2]): did not exhibit an inhibitory action
 | N#Cc1cc(-c2nc3c([O-])ncnc3s2)ccc1Oc1ccc(F)cc1.[K+] [Compound 1, potassium salt of 2-[3-cyano-4-(4-fluorophenoxy)phenyl]-4-hydroxythiazolo[5,4-d]pyrimidine] | reversed the resistance of Flp-In-293/ABCG2 cells to SN-38 in a concentration-dependent manner | did not affect viability | about 96% | IC50 (BCRP [2]; read-out: IC50 (concentration inhibiting methotrexate transport by 50%), [3H]methotrexate 200 μmol/L, 37° C., 20 minutes): 460 nM
770 | N#Cc1cc(-c2n[nH]c(-c3ccncc3)n2)ccn1 [FYX-051, 4-[5-pyridin-4-yl-1H-[1,2,4]triazol-3-yl]pyridine-2-carbonitrile] |  |  | about 39% | 
1100 | N#Cc1cc(-c2nc3cncnc3s2)ccc1Oc1ccc(F)cc1 [Compound 2, 2-[3-cyano-4-(4-fluorophenoxy)phenyl]thiazolo[5,4-d]pyrimidine] | reversed the resistance of Flp-In-293/ABCG2 cells to SN-38 in a concentration-dependent manner |  | about 90% | 
 | N#Cc1cc(-c2nc3c(O)ncnc3s2)ccc1Oc1ccccc1 [Compound 3, potassium salt of 2-(3-cyano-4-phenoxyphenyl)-4-hydroxythiazolo[5,4-d]pyrimidine] |  |  |  | IC50 (BCRP [3]): 230 nM
660 | N#Cc1cc(-c2nc3cncnc3s2)ccc1Oc1ccccc1 [Compound 4, 2-(3-cyano-4-phenoxyphenyl)thiazolo[5,4-d]pyrimidine] |  |  |  | 

Compound | IC50 (BCRP [2]) [nM] | effect of overcoming resistance to SN-38 (in words) [1] | toxicity to the cells / effect on viability (Flp-In-293/ABCG2 cells) | degree of reversing resistance to SN-38 [1] | other results
Cc1nc(-c2ccc(OCC(C)C)c(C#N)c2)sc1C(=O)O [TMX-67, Febuxostat] | 250 |  | did not exhibit toxicity to the cells | about 82% | 
